Measured values from the NIST ThermoML archive (doi:10.1021/acs.jced.9b00846).
Numbers after ± are expanded uncertainties.

Settings: Liquid, Vibrating tube method

CC(C)C(C)C(C)C [2,3,4-trimethylpentane]
Settings	mass density [kg/m3]
323.15 K, 34994 kPa	725.9 ± 1
323.15 K, 39992 kPa	729.4 ± 1
323.15 K, 45046 kPa	732.8 ± 1
323.15 K, 49980 kPa	736 ± 1.1
323.15 K, 54968 kPa	739.1 ± 1.1
323.15 K, 59988 kPa	742.1 ± 1.1
323.15 K, 65068 kPa	745 ± 1.1
328.15 K, 94 kPa	691.3 ± 0.8
328.15 K, 4971 kPa	696.6 ± 0.8
328.15 K, 9997 kPa	701.7 ± 0.9
328.15 K, 14959 kPa	706.4 ± 0.9
328.15 K, 19969 kPa	710.9 ± 0.9
328.15 K, 25055 kPa	715.1 ± 0.9
328.15 K, 29960 kPa	719 ± 1
328.15 K, 34966 kPa	722.7 ± 1
328.15 K, 40013 kPa	726.3 ± 1
328.15 K, 45034 kPa	729.8 ± 1
328.15 K, 50015 kPa	733.1 ± 1.1
328.15 K, 54973 kPa	736.2 ± 1.1
328.15 K, 59955 kPa	739.2 ± 1.1
328.15 K, 64992 kPa	742.2 ± 1.1
333.15 K, 95 kPa	687.1 ± 0.8
333.15 K, 4934 kPa	692.6 ± 0.8
333.15 K, 9973 kPa	697.9 ± 0.9
333.15 K, 14973 kPa	702.8 ± 0.9
333.15 K, 19993 kPa	707.4 ± 0.9
333.15 K, 24959 kPa	711.6 ± 0.9
333.15 K, 29952 kPa	715.7 ± 1
333.15 K, 34974 kPa	719.5 ± 1
333.15 K, 39961 kPa	723.2 ± 1
333.15 K, 44999 kPa	726.7 ± 1
333.15 K, 49992 kPa	730.1 ± 1.1
333.15 K, 54798 kPa	733.2 ± 1.1
333.15 K, 59952 kPa	736.4 ± 1.1
333.15 K, 65050 kPa	739.5 ± 1.1
338.15 K, 115 kPa	683.1 ± 0.8
338.15 K, 4978 kPa	688.9 ± 0.8
338.15 K, 9970 kPa	694.3 ± 0.9
338.15 K, 14966 kPa	699.3 ± 0.9
338.15 K, 19960 kPa	703.9 ± 0.9
338.15 K, 24994 kPa	708.4 ± 0.9
338.15 K, 30030 kPa	712.5 ± 1
338.15 K, 34973 kPa	716.3 ± 1
338.15 K, 39979 kPa	720 ± 1
338.15 K, 45024 kPa	723.6 ± 1
338.15 K, 50019 kPa	727.1 ± 1.1
338.15 K, 54928 kPa	730.3 ± 1.1
338.15 K, 59953 kPa	733.5 ± 1.1
338.15 K, 64998 kPa	736.6 ± 1.2
343.15 K, 109 kPa	678.8 ± 0.8
343.15 K, 5084 kPa	684.9 ± 0.9
343.15 K, 9963 kPa	690.4 ± 0.9
343.15 K, 15039 kPa	695.6 ± 0.9
343.15 K, 20010 kPa	700.4 ± 0.9
343.15 K, 24998 kPa	704.9 ± 0.9
343.15 K, 30054 kPa	709.2 ± 1
343.15 K, 35048 kPa	713.2 ± 1
343.15 K, 40023 kPa	717 ± 1
343.15 K, 44967 kPa	720.6 ± 1
343.15 K, 50023 kPa	724.2 ± 1.1
343.15 K, 54967 kPa	727.5 ± 1.1
343.15 K, 59995 kPa	730.7 ± 1.1
343.15 K, 64954 kPa	733.8 ± 1.2
348.15 K, 112 kPa	674.5 ± 0.8
348.15 K, 5011 kPa	680.8 ± 0.9
348.15 K, 10066 kPa	686.6 ± 0.9
348.15 K, 14992 kPa	691.9 ± 0.9
348.15 K, 19955 kPa	696.8 ± 0.9
348.15 K, 25042 kPa	701.5 ± 0.9
348.15 K, 29986 kPa	705.8 ± 1
348.15 K, 35004 kPa	709.9 ± 1
348.15 K, 40002 kPa	713.9 ± 1
348.15 K, 44996 kPa	717.6 ± 1
348.15 K, 49994 kPa	721.1 ± 1.1
348.15 K, 54995 kPa	724.6 ± 1.1
348.15 K, 60005 kPa	727.9 ± 1.1
348.15 K, 65009 kPa	731 ± 1.2
353.15 K, 109 kPa	670.1 ± 0.8
353.15 K, 4963 kPa	676.6 ± 0.9
353.15 K, 9919 kPa	682.5 ± 0.9
353.15 K, 15039 kPa	688.2 ± 0.9
353.15 K, 19995 kPa	693.2 ± 0.9
353.15 K, 24983 kPa	698 ± 0.9
353.15 K, 29960 kPa	702.4 ± 1
353.15 K, 34985 kPa	706.7 ± 1
353.15 K, 39983 kPa	710.7 ± 1
353.15 K, 45037 kPa	714.5 ± 1
353.15 K, 49989 kPa	718.1 ± 1.1
353.15 K, 54953 kPa	721.6 ± 1.1
353.15 K, 59909 kPa	724.9 ± 1.1
353.15 K, 65052 kPa	728.2 ± 1.2
358.15 K, 118 kPa	665.9 ± 0.8
358.15 K, 4955 kPa	672.5 ± 0.9
358.15 K, 9916 kPa	678.7 ± 0.9
358.15 K, 15035 kPa	684.5 ± 0.9
358.15 K, 19946 kPa	689.6 ± 0.9
358.15 K, 25037 kPa	694.6 ± 0.9
358.15 K, 29963 kPa	699.2 ± 1
358.15 K, 35027 kPa	703.4 ± 1
358.15 K, 40010 kPa	707.5 ± 1
358.15 K, 44955 kPa	711.4 ± 1.1
358.15 K, 50023 kPa	715.1 ± 1.1
358.15 K, 54980 kPa	718.7 ± 1.1
358.15 K, 59952 kPa	722 ± 1.1
358.15 K, 65021 kPa	725.4 ± 1.2
363.15 K, 101 kPa	661.3 ± 0.8
363.15 K, 4941 kPa	668.3 ± 0.9
363.15 K, 9928 kPa	674.7 ± 0.9
363.15 K, 15005 kPa	680.6 ± 0.9
363.15 K, 19958 kPa	686 ± 0.9
363.15 K, 24923 kPa	691 ± 0.9
363.15 K, 29983 kPa	695.8 ± 1
363.15 K, 34922 kPa	700.1 ± 1
363.15 K, 39992 kPa	704.4 ± 1
363.15 K, 45038 kPa	708.4 ± 1.1
363.15 K, 49985 kPa	712.2 ± 1.1
363.15 K, 54981 kPa	715.8 ± 1.1
363.15 K, 59985 kPa	719.3 ± 1.1
363.15 K, 65038 kPa	722.6 ± 1.2
